Our source for the RP-LC retention time values is the METLIN SMRT retention time set (Domingo-Almenara et al. 2019).

This data set can be described thus: gradient 5% acetonitrile 3 min, to 50% in 2 min, to 85% in 15 min, held 3 min, 100 µL/min. The conditions noted are these: column: Zorbax Extend-C18 2.1 x 50 mm; eluents: water / acetonitrile, 0.1% formic acid. The essentials: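 The system's dead and dwell volumes were 40 μL and 900 μL, with a Zorbax Extend-C18 column (2.1 × 50 mm, 1.8 μm) run at 100 μL/min in water and acetonitrile containing 0.1% formic acid each. Pure standards were analyzed in mixtures of ~100 molecules by HPLC–quadrupole time-of-flight mass spectrometry in positive and negative ionization mode. Retention time was assigned from computationally picked, manually inspected adduct peaks.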
As to `COC(=O)c1ncn2c1C(=O)N(Cc1ccccc1C)C(C)(C(=O)NCc1ccccc1)C2` (configuration not stated), the RP-LC retention time worked out at 735 s. For the molecule `CC(=O)N1CCc2cc(S(=O)(=O)C(C)CC(=O)N3CCN(Cc4ccccc4)CC3)ccc21` (configuration not stated), the RP-LC retention time was determined as 960 s.

`Cc1ccccc1-c1noc(C2CCCN2S(=O)(=O)c2ccc(Cl)cc2C)n1` (configuration not stated) returned an RP-LC retention time of 1290 s. As for `CC(C)(C)c1csc(-c2csc(S(=O)(=O)NC3CCCCCC3)c2)n1`, the figure is 1010 s; as for `Cc1ccccc1-n1ncc2c(NCc3ccco3)ncnc21`, 708 s; as for `CCCN(C)C(=O)C1c2ccccc2CC(=O)N1Cc1ccccc1` (configuration not stated), 828 s.

In turn, `O=C(NCCn1c(-c2ccc(F)cc2)nc2cccnc21)Nc1ccc2c(c1)OCCO2` gave an RP-LC retention time of 682 s.

Turning to `Cc1ccc(C)c(NC(=O)CC2COc3ccccc3NC2=O)c1` (configuration not stated), the RP-LC retention time was 738 s.

`COCCCNc1c(-c2ccc(C)cc2)nc2sc(C(N)=O)c(C)n12` yielded an RP-LC retention time of 705 s. The molecule `CCn1cnnc1CC1CCN(S(=O)(=O)Cc2ccccc2F)C1` (configuration not stated) came in with an RP-LC retention time of 658 s. As for `COC(=O)c1c(C)oc2ccc(OCC(=O)c3ccc(F)cc3)cc12`, the figure is 999 s; as for `CCOC(=O)c1c(C)oc2ncnc(NCCN(C)Cc3ccccc3)c12`, 688 s; as for `Cc1ccccc1NC(=O)N1CCC(c2cc3n(n2)CCCN(C)C3=O)CC1`, 660 s.

Regarding `CNC(=O)C1CN(C(=O)Cc2c[nH]c3ccccc23)CC12CCCC2` (configuration not stated), the RP-LC retention time was 596 s. As to `O=C(c1cc(F)ccc1F)N1CCN(C(=O)c2nnn3c2COC(c2ccccc2)C3)CC1` (configuration not stated), the RP-LC retention time stood at 817 s. Next, `CCCNS(=O)(=O)c1cc(-c2[nH]ncc2C(=O)N2CCOCC2)oc1C`: 662 s. For the molecule `Cc1ccc(-c2cc(C(N)=O)c3ccccc3n2)cc1`, the RP-LC retention time came to 784 s. Next, `CCCC(=O)Nc1ccc(CCc2nc3ccc(C(=O)NC4CC4)cc3[nH]2)cc1`: 599 s. Next, `CCC[C@H](NC(=O)/C(C#N)=C/c1cccc(Br)n1)c1ccccc1`: 684 s; `COc1ccccc1N1CCN(C(=O)CC(C)S(=O)(=O)c2ccc3c(c2)CCN3C(C)=O)CC1` (configuration not stated): 754 s; `CCOc1cccc(-c2noc(Cn3cnc4c(cnn4-c4cc(Cl)ccc4C)c3=O)n2)c1`: 1230 s. `CCC(C)NS(=O)(=O)c1cc(-c2nc(C)cs2)n(C)c1C` (configuration not stated) gave an RP-LC retention time of 905 s. Next, `Cc1nc(-c2cccc(NC(=O)CCCn3cnc(-c4ccc(F)cc4)cc3=O)c2)cs1`: 768 s; `O=C(NCc1ccco1)C1CCCN(c2ccc(=O)n(-c3cccc(Cl)c3)n2)C1` (configuration not stated): 808 s. As for `COc1cccc(NC(=O)N2CCC3(C2)C(=O)N(C)c2ccc(OC)cc23)c1` (configuration not stated), the figure is 746 s. The molecule `CC1Oc2ccc(-c3csc(NC(=O)CCc4ccccc4)n3)cc2N(C)C1=O` (configuration not stated) had an RP-LC retention time of 1010 s. For the molecule `CCOc1ccc2nc(C(=O)N3CCN(c4ccccn4)CC3)cn2n1`, the RP-LC retention time was found to be 600 s. As for `CC1Cc2ccccc2N1C(=O)c1ccc(=O)n(CCC(=O)NC2CCCCCC2)n1` (configuration not stated), the figure is 861 s; as for `O=S(=O)(Nc1ccc(Cl)cc1)c1ccc2nncn2c1`, 712 s; as for `c1ccc(-c2nnc(-c3ccccc3OCc3cn4ccccc4n3)o2)cc1`, 702 s. Consider `Cc1cc(N2CCN(C)CC2)nc(N2CCN(C(=O)c3ccc(Br)cc3)CC2)n1`, for which the RP-LC retention time came to 557 s.

On to `Cc1ccccc1C(=O)Nc1nc(-c2ccc3c(c2)N(C)C(=O)CO3)cs1`, for which the RP-LC retention time is 939 s.
